Measured values: EP3034496A1, “NOVEL SOLVATES OF N-[2-[(1S)-1-(3-ETHOXY-4-METHOXYPHENYL)-2-(METHYLSULFONYL)ETHYL]-2,3-DIHYDRO-1,3-DIOXO-1H-ISOINDOL-4-YL]ACETAMIDE” (LEK Pharmaceuticals d.d., priority 2014, dated 2016)
Like-named read-outs stand apart in the source and are kept apart here.

How the values were obtained:
[1] = 90th percentile of the particle size distribution as measured by length, from WO 2009/120167 A1, cited from earlier work
[2] = cited from earlier work; for solubility in H2O: value of the organic solvent incorporated into the crystal structure, not of the crystal form
[3] = gravimetric moisture sorption desorption isotherm; type: physicochemical; settings: 0 to 95% relative humidity, (25.0 ± 0.1) °C
Method: Gravimetric moisture sorption desorption isotherm was acquired using a SPS-11 moisture sorption analyzer (MD Messtechnik, Ulm, D). The sample was weighed into an Aluminium sample holder. […] The water content of the samples was determined after the moisture sorption/ desorption experiments with a TGA 7 system (Perkin Elmer, Norwalk, Ct., USA) using the Pyris 2.0 software according to the above described method.

For `CCOc1cc([C@@H](CS(C)(=O)=O)N2C(=O)c3cccc(NC(C)=O)c3C2=O)ccc1OC` [Form E, N-[2-[(1S)-1-(3-ethoxy-4-methoxyphenyl)-2-(methylsulfonyl)ethyl]-2,3-dihydro-1,3-dioxo-1H-isoindol-4-yl]acetamide], the D90 ([1]; listed as E) is listed as less than 18 microm.

In the case of `CCOc1cc([C@@H](CS(C)(=O)=O)N2C(=O)c3cccc(NC(C)=O)c3C2=O)ccc1OC` [Form D, N-[2-[(1S)-1-(3-ethoxy-4-methoxyphenyl)-2-(methylsulfonyl)ethyl]-2,3-dihydro-1,3-dioxo-1H-isoindol-4-yl]acetamide], the D90 ([1]; listed as D) is listed as less than 18 microm.

For `CC(C)=O` [acetone], the “solubility in water (in words)” value ([2]; organic solvent) is given as “freely soluble in water” and the “solubility in H2O” value [2] is given as 100 %w/w.

In the case of `ClCCl` [methylene chloride], the “solubility in H2O” value [2] is listed as 1.6 %w/w.

In the case of `CC#N` [acetonitrile], the “solubility in H2O” value [2] is listed as 100 %w/w.

For “N-[2-[(1S)-1-(3-ethoxy-4-methoxyphenyl)-2-(methylsulfonyl)ethyl]-2,3-dihydro-1,3-dioxo-1H-isoindol-4-yl]acetamide ethanol solvate”, the hygroscopicity [3] was “non-hygroscopic (compounds showing a mass change of less than 2 weight% based on the weight of the compound in the range of from 0 to 95% relative humidity at (25.0 ± 0.1) °C)” and the mass change ([3]; based on the weight of the crystalline ethanol solvate) was “less than 0.5 % w/w”.

For `CCO` [ethanol], the “solubility in water (in words)” value ([2]; organic solvent) is listed as “freely soluble in water” and the “solubility in H2O” value [2] is listed as 100 %w/w.

For `CCOC(C)=O` [ethyl acetate], the “aqueous solubility / water solubility” value ([2]; organic solvent) is listed as 8.7 % w/w and the “solubility in H2O” value [2] is listed as 8.7 %w/w.

In the case of `CCOc1cc([C@@H](CS(C)(=O)=O)N2C(=O)c3cccc(NC(C)=O)c3C2=O)ccc1OC` [Form G, N-[2-[(1S)-1-(3-ethoxy-4-methoxyphenyl)-2-(methylsulfonyl)ethyl]-2,3-dihydro-1,3-dioxo-1H-isoindol-4-yl]acetamide], the D90 ([1]; listed as G) is given as less than 18 microm.

For `CCOc1cc([C@@H](CS(C)(=O)=O)N2C(=O)c3cccc(NC(C)=O)c3C2=O)ccc1OC` [Form C, N-[2-[(1S)-1-(3-ethoxy-4-methoxyphenyl)-2-(methylsulfonyl)ethyl]-2,3-dihydro-1,3-dioxo-1H-isoindol-4-yl]acetamide], the D90 ([1]; listed as C) is listed as less than 12 microm.
